Experiment: HCV replicon assay (luciferase reporter, ET cell line)
Type: cell-based
Settings: Hepatitis C virus, HCV replicon luciferase activity in ET cells
How it was run: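 ET cells carry a stable luciferase-ubiquitin-neo/NS3-5B subgenomic HCV replicon with adaptive mutations. Compounds (0.1 nM to […], 0.5% DMSO) were added 24 h after plating, and luciferase was read 48-72 h later. EC50 came from 10-point 2-fold dilutions fitted to a Hill equation; TC50 was measured in parallel by WST-1.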

| Structure (SMILES) | inhibition at 10 µM [%] |
| --- | --- |
| COc1ccc(C2CCN(C(=O)c3nc4c(C(F)(F)F)cc(-c5ccoc5)cn4c3Cl)C2)cc1 (stereo not drawn) [Compound 335, (3-Chloro-6-furan-3-yl-8-trifluoromethyl-imidazo[1,2-a]pyridin-2-yl)-[3-(4-methoxy-phenyl)-pyrrolidin-1-yl]-methanone] | 76.3 |
| O=C(c1nc2c(C(F)(F)F)cc(-c3ccoc3)cn2c1Cl)N1CCC(c2ccc(C(F)(F)F)cc2)C1 (stereo not drawn) [Compound 336, (3-chloro-6-furan-3-yl-8-trifluoromethyl-imidazo[1,2-a]pyridin-2-yl)-[3-(4-trifluoromethyl-phenyl)-pyrrolidin-1-yl]-methanone] | 73.2 |
| O=C(c1cn2cc(-c3ccoc3)cc(C(F)(F)F)c2n1)N1CCC(c2ccccc2F)C1 (stereo not drawn) [Compound 337, [3-(2-Fluoro-phenyl)-pyrrolidin-1-yl]-(6-furan-3-yl-8-trifluoromethyl-imidazo[1,2-a]pyridin-2-yl)-methanone] | 97.7 |
| COC(=O)c1ccccc1C1CCN(C(=O)c2nc3c(C(F)(F)F)cc(-c4ccoc4)cn3c2Cl)C1 (stereo not drawn) [Compound 338, 2-[1-(3-Chloro-6-furan-3-yl-8-trifluoromethyl-imidazo[1,2-a]pyridine-2-carbonyl)-pyrrolidin-3-yl]-benzoic Acid Methyl Ester] | 49.3 |
| COc1ccc(C2CCN(C(=O)c3nc4c(C(F)(F)F)cc(-c5ccoc5)cn4c3Cl)C2)cc1OC (stereo not drawn) [Compound 339, (3-Chloro-6-furan-3-yl-8-trifluoromethyl-imidazo[1,2-a]pyridin-2-yl)-[3-(3,4-dimethoxy-phenyl)-pyrrolidin-1-yl]-methanone] | 63 |
| O=C(c1nc2c(C(F)(F)F)cc(-c3ccoc3)cn2c1Cl)N1CCC(N2CCCCC2)C1 (stereo not drawn) [Compound 340, (3-Chloro-6-furan-3-yl-8-trifluoromethyl-imidazo[1,2-a]pyridin-2-yl)-(3-piperidin-1-yl-pyrrolidin-1-yl)-methanone] | 65.6 |
| O=C(c1nc2c(C(F)(F)F)cc(-c3ccoc3)cn2c1Cl)N1CCC(c2ccccc2Cl)C1 (stereo not drawn) [Compound 341, (3-Chloro-6-furan-3-yl-8-trifluoromethyl-imidazo[1,2-a]pyridin-2-yl)-[3-(2-chloro-phenyl)-pyrrolidin-1-yl]-methanone] | 83.6 |
| O=C(NCc1cccs1)c1cc2cc(-c3cn[nH]c3)cc(Cl)c2[nH]1 [Compound 347, 7-Chloro-5-(1H-pyrazol-4-yl)-1H-indole-2-carboxylic Acid (thiophen-2-ylmethyl)-amide] | 0.1 |
| O=C(NCc1cccs1)c1cc2cc(-c3ccoc3)cc(Cl)c2[nH]1 [Compound 348, 7-Chloro-5-furan-3-yl-1H-indole-2-carboxylic Acid (thiophen-2-ylmethyl)-amide] | 0.1 |
| O=C(c1nc2c(C(F)(F)F)cc(-c3ccoc3)cc2[nH]1)N1CCC(c2ccc(F)cc2)C1 (stereo not drawn) [Compound 351, [3-(4-Fluoro-phenyl)-pyrrolidin-1-yl]-(6-furan-3-yl-4-trifluoromethyl-1H-benzoimidazol-2-yl)-methanone] | 52.1 |
| CCn1c(C(=O)N2CCC(c3ccc(F)cc3)C2)nc2c(C(F)(F)F)cc(-c3ccoc3)cc21 (stereo not drawn) [Compound 352, (1-Ethyl-6-furan-3-yl-4-trifluoromethyl-1H-benzoimidazol-2-yl)-[3-(4-fluoro-phenyl)-pyrrolidin-1-yl]-methanone] | 49.8 |
| CCn1c(C(=O)N2CCC(c3ccc(F)cc3)C2)nc2cc(-c3ccoc3)cc(C(F)(F)F)c21 (stereo not drawn) [Compound 353, (1-Ethyl-5-furan-3-yl-7-trifluoromethyl-1H-benzoimidazol-2-yl)-[3-(4-fluoro-phenyl)-pyrrolidin-1-yl]-methanone] | 3.5 |
| CN(C)Cc1cccc(-c2cc(C(F)(F)F)c3nc(C(=O)N4CCC(c5ccc(F)cc5)C4)c(Cl)n3c2)c1 (stereo not drawn) [Compound 354, [3-Chloro-6-(3-dimethylaminomethyl-phenyl)-8-trifluoromethyl-imidazo[1,2-a]pyridin-2-yl]-[3-(4-fluoro-phenyl)-pyrrolidin-1-yl]-methanone] | 97.8 |
| O=C(Nc1nc2c(C(F)(F)F)cc(-c3ccoc3)cn2c1Cl)c1cccs1 [Compound 356, Thiophene-2-carboxylic acid (3-chloro-6-furan-3-yl-8-trifluoromethyl-imidazo[1,2-a]pyridin-2-yl)-amide] | 32.5 |
| C=C(C)c1cc(-c2ccccc2)cn2c(Cl)c(C(=O)NCc3cccs3)nc12 [Compound 358, 3-Chloro-8-isopropenyl-6-phenyl-imidazo [1,2-a]pyridine-2-carboxylic Acid (thiophen-2-ylmethyl)-amide] | 77.3 |
| O=C(NCc1cccs1)c1nc2c(/C=C/c3ccccc3)cc(-c3ccccc3)cn2c1Cl [Compound 359, 3-Chloro-6-phenyl-8-styryl-imidazo[1,2-a]pyridine-2-carboxylic Acid (thiophen-2-ylmethyl)-amide] | 100 |
| O=C(NCc1cncs1)c1nc2c(C(F)(F)F)cc(-c3ccoc3)cn2c1Cl [Compound 360, 3-Chloro-6-furan-3-yl-8-trifluoromethyl-imidazo[1,2-a]pyridine-2-carboxylic Acid (thiazol-5-ylmethyl)-amide] | 85.2 |

| Structure (SMILES) | inhibition at 10 µM [%] |
| --- | --- |
| N#Cc1cc(-c2ccccc2)cn2c(Br)c(C(=O)NCc3cccs3)nc12 [Compound 362, 3-Bromo-8-cyano-6-phenyl-imidazo[1,2-a]pyridine-2-carboxylic Acid (thiophen-2-ylmethyl)amide] | 86.9 |
| O=S(=O)(Cc1ccccc1)Nc1nc2c(C(F)(F)F)cc(-c3ccco3)cn2c1Cl [Compound 363, N-(3-Chloro-6-furan-2-yl-8-trifluoromethyl-imidazo[1,2-a]pyridin-2-yl)-C-phenyl-methanesulfonamide] | 12.6 |
| O=C(NCc1cccs1)c1nc2c(C(F)(F)F)cc(-c3cccc(F)c3)cn2c1CN1CCOCC1 [Compound 364, 6-(3-Fluoro-phenyl)-3-morpholin-4-ylmethyl-8-trifluoromethyl-imidazo[1,2-a]pyridine-2-carboxylic Acid (thiophen-2-ylmethyl)-amide] | 5.3 |
| CN(C)Cc1c(C(=O)NCc2cccs2)nc2c(C(F)(F)F)cc(-c3cccc(F)c3)cn12 [Compound 365, 3-Dimethylaminomethyl-6-(3-fluoro-phenyl)-8-trifluoromethyl-imidazo[1,2-a]pyridine-2-carboxylic Acid (thiophen-2-ylmethyl)-amide] | 4.4 |
| O=C(NCc1cccs1)c1nc2c(C(F)(F)F)cc(-c3cccc(F)c3)cn2c1Br [Compound 367, 3-bromo-6-(3-fluoro-phenyl)-8-trifluoromethyl-imidazo[1,2-a]pyridine-2-carboxylic acid (thiophen-2-ylmethyl)-amide] | 96.2 |
| O=C(c1nc2c(C(F)(F)F)cc(-c3cccc(F)c3)cn2c1Br)N1CCC(c2ccccc2)C1 (stereo not drawn) [Compound 368, [3-Bromo-6-(3-fluoro-phenyl)-8-trifluoromethyl-imidazo[1,2-a]pyridin-2-yl]-(3-phenyl-pyrrolidin-1-yl)-methanone] | 92.2 |
| O=C(NCc1cccs1)c1nc2c(Cl)cc(-c3ccccc3)cn2c1Br [Compound 369, 3-Bromo-8-chloro-6-phenyl-imidazo[1,2-a]pyridine-2-carboxylic Acid (thiophen-2-ylmethyl)-amide] | 88 |
| O=C(NCc1cccs1)c1nc2c(Cl)cc(-c3ccccc3)cn2c1Cl [Compound 370, 3,8-Dichloro-6-phenyl-imidazo[1,2-a]pyridine-2-carboxylic Acid (thiophen-2-ylmethyl)-amide] | 80.4 |
| O=C(NCc1cccs1)c1nc2c(Br)cc(-c3ccccc3)cn2c1Cl [Compound 371, 8-Bromo-3-chloro-6-phenyl-imidazo[1,2-a]pyridine-2-carboxylic Acid (thiophen-2-ylmethyl)-amide] | 78.6 |
| O=C(NCc1cccs1)c1nc2c(-c3ncon3)cc(-c3ccoc3)cn2c1Cl [Compound 374, 3-Chloro-6-furan-3-yl-8-[1,2,4]oxadiazol-3-yl-imidazo[1,2-a]pyridine-2-carboxylic Acid (thiophen-2-ylmethyl)-amide] | 28.6 |
| CCCCCc1nc(-c2cc(-c3ccoc3)cn3c(Cl)c(C(=O)NCc4cccs4)nc23)no1 [Compound 375, 3-Chloro-6-furan-3-yl-8-(5-pentyl-[1,2,4]oxadiazol-3-yl)-imidazo[1,2-a]pyridine-2-carboxylic Acid (thiophen-2-ylmethyl)-amide] | 35.4 |
| O=C(NCc1cccs1)c1nc2c(C(F)(F)F)cc(-c3cn[nH]c3)cn2c1Br [Compound 376, 3-Bromo-6-(1H-pyrazol-4-yl)-8-trifluoromethyl-imidazo[1,2-a]pyridine-2-carboxylic Acid(thiophen-2-ylmethyl)-amide] | 98.8 |
| O=C(c1cn2cc(-c3cn[nH]c3)cc(C(F)(F)F)c2n1)N1CCC(c2ccccc2F)C1 (stereo not drawn) [Compound 377, [3-(2-Fluoro-phenyl)-pyrrolidin-1-yl]-[6-(1H-pyrazol-4-yl)-8-trifluoromethyl-imidazo[1,2-a]pyridin-2-yl]-methanone] | 94.2 |
| O=C(c1cn2cc(-c3cn[nH]c3)cc(C(F)(F)F)c2n1)N1CCC(c2cccc(F)c2)C1 (stereo not drawn) [Compound 378, [3-(3-Fluoro-phenyl)-pyrrolidin-1-yl]-[6-(1H-pyrazol-4-yl)-8-trifluoromethyl-imidazo[1,2-a]pyridin-2-yl]-methanone] | 86.4 |
| N#Cc1cc(-c2cn[nH]c2)cn2c(Cl)c(C(=O)NCc3cccs3)nc12 [Compound 379, 3-Chloro-8-cyano-6-(1H-pyrazol-4-yl)-imidazo[1,2-a]pyridine-2-carboxylic Acid (thiophen-2-ylmethyl)-amide] | 80.8 |
| O=C(c1nc2c(C(F)(F)F)cc(-c3ccco3)cn2c1Cl)N1CCc2ccccc21 [Compound 380, (3-Chloro-6-furan-2-yl-8-trifluoromethyl-imidazo[1,2-a]pyridin-2-yl)-(2,3-dihydro-indol-1-yl)-methanone] | 20.2 |

From patent US20120121540A1 (priority 2007, published 2012)
